# Experimental data reported in US11149035B2, “Chemical compounds as H—PGDS inhibitors” (GlaxoSmithKline Intellectual Property Development Limited, priority 2017, dated 2021).
# Molecular target: T1, haematopoietic prostaglandin D synthase (H-PGDS) (Homo sapiens, UniProt O60760)
# T1 construct: Full length human H-PGDS cDNA (Invitrogen Ultimate ORF IOH13026) was amplified by PCR; 6-His (N); TEV protease cleavage site (N); made in house; host or cells: E. coli BL21 (DE3*)
# Test: H-PGDS RapidFire high throughput mass spectrometry assay (conversion of PGH2 to PGD2)
# Format: biochemical
# Details: 10 nM H-PGDS, PGH2 formed in situ by COX-2 from arachidonic acid; four parameter curve fit; read-out: Potency Range (mean pIC50) (converted)
# How it was run: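 His-tagged full-length human H-PGDS from E. coli converts PGH2, generated in situ at ~10 μM from arachidonic acid by FLAG-tagged human COX-2 from Sf9 cells. RapidFire SPE-triple quadrupole MS measures PGD2 against PGF2α as substrate surrogate; percent conversion is calculated.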
# T1 sequence (O60760 whole entry): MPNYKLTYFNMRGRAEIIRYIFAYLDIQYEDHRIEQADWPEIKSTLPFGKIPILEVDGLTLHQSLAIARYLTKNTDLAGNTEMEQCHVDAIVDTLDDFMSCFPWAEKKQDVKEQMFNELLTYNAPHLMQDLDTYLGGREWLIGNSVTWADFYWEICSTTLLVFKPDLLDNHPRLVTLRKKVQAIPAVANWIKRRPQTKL
row,SMILES,IC50 [nM]
1,"CC(C)(O)[C@H]1CC[C@H](NC(=O)c2cnc3nc(N4CCC4)ncc3c2)CC1 [Example 79, 2-(Azetidin-1-yl)-N-((trans)-4-(2-hydroxypropan-2-yl)cyclohexyl)pyrido[2,3-d]pyrimidine-6-carboxamide]",10 to 79.4
2,"COc1ncc2cc(C(=O)N[C@H]3CC[C@H](C(C)(C)O)CC3)cnc2n1 [Example 80, N-((trans)-4-(2-Hydroxypropan-2-yl)cyclohexyl)-2-methoxypyrido[2,3-d]pyrimidine-6-carboxamide]",100 to 1000
